Test results from US7855292B2, “Sulfonamide compounds” (Janssen Pharmaceutica NV, priority 2004, dated 2010).

What was measured:
CCK2 receptor = molecular target: T1, CCK2 receptor (Homo sapiens, UniProt P32239); test: CCK2 binding assay ([125I]-BH-CCK-8S displacement, HEKZFP membranes); details: membranes of doxycycline-induced HEKZFP cells, 20 pM [125I]-BH-CCK-8S, 60 min at 21±3° C.; for Ki: read-out: CCK2 pKi (converted)
T1 construct: analyzed for ZFP expression as well as CCK2R induction upon addition of doxycycline to the culture medium; endogenous in cells
T1 sequence (P32239 1-447): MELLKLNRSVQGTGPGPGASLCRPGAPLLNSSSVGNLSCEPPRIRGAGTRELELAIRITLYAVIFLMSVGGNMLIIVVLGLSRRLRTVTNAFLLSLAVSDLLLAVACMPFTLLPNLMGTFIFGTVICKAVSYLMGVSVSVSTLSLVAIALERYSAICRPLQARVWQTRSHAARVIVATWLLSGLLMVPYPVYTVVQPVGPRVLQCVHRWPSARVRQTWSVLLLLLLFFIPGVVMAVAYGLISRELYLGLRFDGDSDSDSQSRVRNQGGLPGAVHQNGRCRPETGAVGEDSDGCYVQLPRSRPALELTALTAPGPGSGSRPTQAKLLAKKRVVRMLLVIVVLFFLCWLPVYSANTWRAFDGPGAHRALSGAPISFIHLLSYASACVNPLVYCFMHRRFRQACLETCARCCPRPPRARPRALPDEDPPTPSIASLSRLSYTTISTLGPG
Procedure: 2. CCK2 Assay Development and Data Generation
Zinc Finger Proteins (ZFP) specific for the CCK2R gene were identified by Sangamo Biosciences. The ZFP domain was fused with the herpes simplex virus VP16 activation domain, and the fusion protein was subsequently cloned into the pcDNA3 mammalian expression vector (Invitrogen, San Diego, Calif.). […] After 2 weeks of selection in culture medium containing […] Zeocin (Invitrogen), sixty drug-resistant stable clones were isolated and analyzed for ZFP expression as well as CCK2R induction upon addition of doxycycline to the culture medium.
HEKZFP cells were grown in DMEM supplemented with L-glutamine (2 mM), penicillin (50 units/mL) and streptomycin (50 μg/mL) and 10% FBS (v/v).
Membranes were prepared from the HEKZFP cells after induction. […] The thawed pellets were homogenized using a Polytron PT-10 (7×1 s). The homogenates were centrifuged for 5 min at 1500 rpm (600×g), and the resulting pellets were discarded. The supernatants were re-centrifuged in order to collect the receptor-membrane pellets (25 min 15,000 rpm; 39,800×g), which were re-suspended in buffer A.
The assay preparation was incubated for 1 h at 21±3° C., and then the assay was terminated by rapid filtration of the preparation under reduced pressure. The loaded filters were washed three times using undiluted PBS (100 μL), and then 100 μL of scintillation fluid was added to the filter plate. Bound radioactivity was determined using a Topcount (Packard BioScience, Meriden, Conn.) with a count time of 1 min. […] To validate the radioligand concentration and incubation time for the assay, saturation and kinetic binding studies were also conducted (see M. F. Morton, The Pharmacological Characterization of Cholecystokinin Receptors in the Human Gastrointestinal Tract. PhD Thesis, University of London, 2000). […] The assay was then terminated according to the procedure outlined above.
(§1) 3. Data Analysis for CCK1 and CCK2 Binding Assays
The pKi values were determined using the equation of Y.-C.
(§2) [formula] To circumvent problems associated with computer-assisted data analysis of compounds with low affinity, the data obtained in the current study were weighted according to a method described by Morton. In brief, 100% and 0% specific binding were defined independently using total binding and binding obtained in the presence of a high concentration of the reference antagonist, 2-NAP.

CCK-1 receptor = molecular target: T2, CCK-1 receptor (Homo sapiens, UniProt P32238); test: CCK1 binding assay ([125I]-BH-CCK-8S displacement, CHO-K1 membranes); details: membranes of CHO-K1 cells stably transfected with the CCK-1 receptor, 20 pM [125I]-BH-CCK-8S, 0.3 μM PD-134,308 present, 60 min at 21±3° C.; for Ki: read-out: CCK1 pKi (converted)
T2 construct: expressed in transfected cells; host or cells: CHO-K1
T2 sequence (P32238 1-428): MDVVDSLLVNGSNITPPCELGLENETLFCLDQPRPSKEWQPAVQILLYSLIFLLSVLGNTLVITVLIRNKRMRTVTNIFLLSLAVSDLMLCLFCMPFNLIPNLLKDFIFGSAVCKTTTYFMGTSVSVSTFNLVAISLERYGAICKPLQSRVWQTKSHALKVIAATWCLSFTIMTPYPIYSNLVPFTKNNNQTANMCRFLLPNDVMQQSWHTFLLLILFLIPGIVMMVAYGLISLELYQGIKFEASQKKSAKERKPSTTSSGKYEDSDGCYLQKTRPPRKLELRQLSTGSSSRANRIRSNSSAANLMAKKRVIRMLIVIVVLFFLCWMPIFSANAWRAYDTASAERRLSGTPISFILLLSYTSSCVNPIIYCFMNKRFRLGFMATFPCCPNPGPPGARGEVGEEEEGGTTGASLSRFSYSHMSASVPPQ
Procedure: 1. CCK1 Assay Development and Data Generation
CHO-K1 cells that had undergone stable transfection with the CCK-1 receptor were grown in DMEM supplemented with L-glutamine (2 mM), penicillin (50 units/mL) and streptomycin (50 μg/mL). Cells were cultured under continuous G418 selection (2 mM) and were harvested using a rubber cell scraper. CHO-K1 cells were sub-cultured a maximum of ten times before being reseeded from the original stocks.
Membranes were prepared from the stably transfected CHO-K1 cells. Frozen cell pellets (−40° C.) were thawed in 14 mL of buffer A (10 mM HEPES, 130 mM NaCl, 4.7 mM KCl, 5 mM MgCl, 1 mM EGTA and 15.4 mg/100 mL bacitracin at pH 7.2), adapted from Harper et al. (Br. J. Pharmacol. 1996, 118:1717-1726). The thawed pellets were homogenized using a Polytron PT-10 (7×1 s). The homogenates were centrifuged for 5 min at 1500 rpm (600×g), and the resulting pellets were discarded. The supernatants were re-centrifuged in order to collect the receptor-membrane pellets (25 min 15,000 rpm; 39,800×g), which were re-suspended in buffer A.
All assays were conducted in 96-well plates (GF/B millipore filter plates) using buffer A, with 0.3 μM PD-134,308, for the dilutions. The CCK-2 receptor ligand was included to eliminate the contribution of this receptor subtype to the binding. For the optimal cell number determination experiments 20 pM [^125I]-BH-CCK-8S (50 μL […] solution) was incubated with a range of cell concentrations ([…] to 12.5×10^5 cells/well) in a total volume of 150 μL. Total binding of [^125I]-BH-CCK-8S was determined in the presence of 15 μL of buffer A. Non-specific binding of [^125I]-BH-CCK-8S was determined in the presence of 15 μL of 100 μM 2-naphthalenesulphonyl L-aspartyl-(2-phenethyl)amide (2-NAP: see R. A. Hull et al. Br. J. Pharmacol. 1993, 108:734-740), a CCK-1 receptor selective antagonist that is structurally unrelated to the radioligand [^125I]-BH-CCK-8S. The assay preparation was incubated for 1 h at 21±3° C., and then the assay was terminated upon rapid filtration of the preparation under reduced pressure. The loaded filters were washed three times using undiluted PBS ([…]), and then the residues were transferred to 5 mL scintillation tubes. Bound radioactivity was determined using a gamma counter (count time=1 min). […] To validate the radioligand concentration and incubation time for the assay, saturation and kinetic binding studies were also conducted (see M. F. Morton, The Pharmacological Characterization of Cholecystokinin Receptors in the Human Gastrointestinal Tract. PhD Thesis, University of London, 2000). […] The assay was then terminated according to the procedure outlined above.
as §1
The pKi values were determined using the equation of Y.-C. Cheng and W. H. Prusoff (Biochem. Pharmacol., 1973, 22(23):3099-3108):
as §2

Row | Compound | Ki (CCK2 receptor) [nM] | Ki (CCK-1 receptor) [nM] | CCK2 pKi (CCK2 receptor) | CCK1 pKi (CCK-1 receptor)
1 | O=C(N[C@@H](Cc1ccc(Cl)c(Br)c1)C(=O)O)c1ccc(Br)cc1NS(=O)(=O)c1cccc2nsnc12 [Example 161, (S)-2-[2-(Benzo[1,2,5]thiadiazole-4-sulfonylamino)-4-bromo-benzoylamino]-3-(3-bromo-4-chloro-phenyl)-propionic acid] |  |  | 7.9 | 6.9
2 | CC(CNC(=O)c1ccc(I)cc1NS(=O)(=O)c1cccc2nccnc12)c1ccc(Cl)c(Cl)c1 (racemic) [Example 61, (±)-N-[2-(3,4-Dichloro-phenyl)-propyl]-4-iodo-2-(quinoxaline-5-sulfonylamino)-benzamide] | 398 | 126 |  | 
3 | O=C(N[C@@H](Cc1ccccc1)C(=O)O)c1cc(Cl)c(Cl)cc1NS(=O)(=O)c1cccc2nccnc12 [Example 29, 2-[4,5-Dichloro-2-(quinoxaline-5-sulfonylamino)-benzoylamino]-3-phenyl-propionic acid] | 79.4 | 6310 |  | 
4 | O=C(N[C@H](Cc1ccc(Cl)c(Cl)c1)C(=O)O)c1ccc(Cl)cc1NS(=O)(=O)c1c(F)cccc1F [Example 120, (R)-2-[4-Chloro-2-(2,6-difluoro-benzenesulfonylamino)-benzoylamino]-3-(3,4-dichloro-phenyl)-propionic acid] | 1000 | 79.4 |  | 
5 | CC(Cc1ccc(Cl)cc1)NC(=O)c1ccc(Br)cc1NS(=O)(=O)c1cccc2scnc12 (stereo not shown) [Example 23, 2-(Benzothiazole-4-sulfonylamino)-4-bromo-N-[2-(4-chloro-phenyl)-1-methyl-ethyl]-benzamide] | 631 | 1000 |  | 
6 | C[C@H](CN1C(=O)c2cc(Br)cc(NS(=O)(=O)c3cccc4nsnc34)c2C1=O)c1ccccc1 [Example 13, (S)-Benzo[1,2,5]thiadiazole-4-sulfonic acid [6-bromo-1,3-dioxo-2-(2-phenyl-propyl)-2,3-dihydro-1H-isoindol-4-yl]-amide] | 631 | 1260 |  | 

Other lines, results leading:

Row | Ki (CCK2 receptor) [nM] | Ki (CCK-1 receptor) [nM] | CCK2 pKi (CCK2 receptor) | CCK1 pKi (CCK-1 receptor) | Compound
7 | 251 | 200 |  |  | O=C(NC(C(=O)O)C(O)c1ccc(Cl)c(Cl)c1)c1ccc(Cl)cc1NS(=O)(=O)c1cccc2nsnc12 (mixture of isomers) [Example 19, 2-[2-(Benzo[1,2,5]thiadiazole-4-sulfonylamino)-4-chloro-benzoylamino]-3-(3,4-dichloro-phenyl)-3-hydroxy-propionic acid]
8 | 2000 | 200 |  |  | C[C@@H](NC(=O)c1ccc(Cl)cc1NS(=O)(=O)c1cccc2nsnc12)[C@@H](O)c1ccccc1 [Example 49, 2-(Benzo[1,2,5]thiadiazole-4-sulfonylamino)-4-chloro-N-((2S,1R)-2-hydroxy-1-methyl-2-phenyl-ethyl)-benzamide]
9 | 251 | 25.1 |  |  | CC(CNC(=O)c1ccc(I)cc1NS(=O)(=O)c1cccc2nsnc12)c1ccc(Cl)c(Cl)c1 (stereo not shown) [Example 39, 2-(Benzo[1,2,5]thiadiazole-4-sulfonylamino)-N-[2-(3,4-dichloro-phenyl)-propyl]-4-iodo-benzamide]
10 | 79.4 | 398 |  |  | O=C(N[C@H](Cc1cccc(Br)c1)C(=O)O)c1ccc(I)cc1NS(=O)(=O)c1cccc2nsnc12 [Example 115, (R)-2-[2-(Benzo[1,2,5]thiadiazole-4-sulfonylamino)-4-iodo-benzoylamino]-3-(3-bromo-phenyl)-propionic acid]
11 | 316 | 794 |  |  | Cc1ccc(C(=O)NCC(C)c2ccc(Cl)cc2)c(NS(=O)(=O)c2cccc3nsnc23)c1 (racemic) [Example 54, (±)-2-(Benzo[1,2,5]thiadiazole-4-sulfonylamino)-N-[2-(4-chloro-phenyl)-propyl]-4-methyl-benzamide]
12 | 63.1 | 1260 |  |  | Cc1ccc(C(=O)NC(CO)Cc2ccc(Cl)cc2)c(NS(=O)(=O)c2cccc3nsnc23)c1 (racemic) [Example 12, (±)-2-(Benzo[1,2,5]thiadiazole-4-sulfonylamino)-N-[2-(4-chloro-phenyl)-1-hydroxymethyl-ethyl]-4-methyl-benzamide]
13 | 39.8 | 2510 |  |  | O=C(N[C@@H](Cc1ccccc1)C(=O)O)c1ccc(C(F)(F)F)cc1NS(=O)(=O)c1cccc2nsnc12 [Example 26, 2-[2-(Benzo[1,2,5]thiadiazole-4-sulfonylamino)-4-trifluoromethyl-benzoylamino]-3-phenyl-propionic acid]
14 | 794 |  |  | 5.4 | CC(C)(c1ccc(Cl)cc1)[C@H](NC(=O)c1ccc(Cl)cc1NS(=O)(=O)c1cccc2nsnc12)C(=O)O [Example 107, (S)-2-[2-(Benzo[1,2,5]thiadiazole-4-sulfonylamino)-4-chloro-benzoylamino]-3-(4-chloro-phenyl)-3-methyl-butyric acid]
